Patent publication US20230389548A1, “MIXTURES OF PYRIMIDINES AS HERBICIDAL COMPOSITIONS” (SYNGENTA CROP PROTECTION AG, priority 2020, published 2023)

Tests used:
Test in all cases: Post-emergence glasshouse spray test, visual percentage phytotoxicity after 13 days
Type in all cases: in vivo
Lolium perenne (LOLPE) = conditions: for LOLPE percentage phytotoxicity: B1; for Observed phytotoxicity LOLPE: B2.2.4
Experimental: (§1) Seeds of Setaria faberi (SETFA), Echinochloa crus-galli (ECHCG), Digitaria sanguinalis (DIGSA), Lolium perenne (LOLPE), Alopecurus myosuroides (ALOMY), Chenopodium album (CHEAL), Ipomoea hederacea (IPOHE), Stellaria media (STEME), Abutilon threophrasti (ABUTH), Amaranthus retroflexus (AMARE) were sown in standard sterilised soil in pots. After cultivation for 8 days under controlled conditions in a glasshouse (at 24/19° C., day/night; 16 hours light; no humidity control), the plants were sprayed at 500 l/Ha with an aqueous spray solution derived from the formulation of the technical active ingredients in a small amount of acetone and a solvent and emulsifier mixture referred to as IF50 (11.12% Emulsogen EL360™+44.44% N-methylpyrrolidone+44.44% Dowanol DPM glycol ether), to create a 50 g/l solution which was then diluted using 0.2% Genapol XO80 (CAS Number: 9043-30-5) as diluent to give the desired final dose of test compound.
(§2) Where active ingredients were applied as mixtures, aqueous spray solutions were prepared as above, containing both active ingredients.
(§3) The test plants were then grown under controlled conditions in a glasshouse (at 24/18° C., day/night; 15 hours light; 50% humidity) and watered twice daily. After 13 days, the test was evaluated visually for percentage phytotoxicity to the plants (where 100=total damage to plant; 0=no damage to plant; and NC=not captured) when compared to control untreated plants. Two to four replicates were applied for each treatment in a randomised block test design.
(§4) 22., E=X+Y−(X*Y/100), where
(§5) X=average percent phytotoxicity of herbicide A when applied at a certain rate Y=average percent phytotoxicity using herbicide B when applied at a certain rate E=the expected effect of the mixture of herbicides A and B as calculated from the Colby formula.

[1] = system: Echinochloa crus-galli (ECHCG); conditions: for ECHCG percentage phytotoxicity: B1; for Observed phytotoxicity ECHCG: B2.2.2
Experimental: as §1, §2, §3, §4, §5

Stellaria media (STEME) = conditions: B1
Experimental: as §1, §2, §3, §4, §5

Setaria faberi (SETFA) = conditions: for SETFA percentage phytotoxicity: B1; for Observed phytotoxicity SETFA: B2.2.1
Experimental: as §1, §2, §3, §4, §5

[2] = system: Ipomoea hederacea (IPOHE); conditions: B1
Experimental: as §1, §2, §3, §4, §5

[3] = system: Amaranthus retroflexus (AMARE); conditions: for AMARE percentage phytotoxicity: B1; for Observed phytotoxicity AMARE: B2.2.6
Experimental: as §1, §2, §3, §4, §5

[4] = system: Chenopodium album (CHEAL); conditions: B1
Experimental: as §1, §2, §3, §4, §5

[5] = system: Digitaria sanguinalis (DIGSA); conditions: for DIGSA percentage phytotoxicity: B1; for Observed phytotoxicity DIGSA: B2.2.3
Experimental: as §1, §2, §3, §4, §5

[6] = system: Abutilon threophrasti (ABUTH); conditions: B1
Experimental: as §1, §2, §3, §4, §5

[7] = system: Alopecurus myosuroides (ALOMY); conditions: for ALOMY percentage phytotoxicity: B1; for Observed phytotoxicity ALOMY: B2.2.5
Experimental: as §1, §2, §3, §4, §5

CC1(C)CN(Cc2ccccc2NS(=O)(=O)C(F)(F)F)C1=O [B-IV]
LOLPE percentage phytotoxicity (Lolium perenne (LOLPE); 31.25 g/ha post-emergence): 0%
LOLPE percentage phytotoxicity (Lolium perenne (LOLPE); 62.5 g/ha post-emergence): 0%
LOLPE percentage phytotoxicity (Lolium perenne (LOLPE); 125 g/ha post-emergence): 0%
LOLPE percentage phytotoxicity (Lolium perenne (LOLPE); 250 g/ha post-emergence): 8%
LOLPE percentage phytotoxicity (Lolium perenne (LOLPE); 500 g/ha post-emergence): 38%
LOLPE percentage phytotoxicity (Lolium perenne (LOLPE); 1000 g/ha post-emergence): 65%
Observed phytotoxicity LOLPE (Lolium perenne (LOLPE); 62.5 g/ha post-emergence): 0%
Observed phytotoxicity LOLPE (Lolium perenne (LOLPE); 125 g/ha post-emergence): 0%
Observed phytotoxicity LOLPE (Lolium perenne (LOLPE); 250 g/ha post-emergence): 8%
Observed phytotoxicity LOLPE (Lolium perenne (LOLPE); 500 g/ha post-emergence): 38%
Observed phytotoxicity LOLPE (Lolium perenne (LOLPE); 1000 g/ha post-emergence): 65%
ECHCG percentage phytotoxicity ([1]; 31.25 g/ha post-emergence): 1%
ECHCG percentage phytotoxicity ([1]; 62.5 g/ha post-emergence): 13%
ECHCG percentage phytotoxicity ([1]; 125 g/ha post-emergence): 38%
ECHCG percentage phytotoxicity ([1]; 250 g/ha post-emergence): 60%
ECHCG percentage phytotoxicity ([1]; 500 g/ha post-emergence): 78%
ECHCG percentage phytotoxicity ([1]; 1000 g/ha post-emergence): 90%
Observed phytotoxicity ECHCG ([1]; 125 g/ha post-emergence): 38%
Observed phytotoxicity ECHCG ([1]; 250 g/ha post-emergence): 60%
Observed phytotoxicity ECHCG ([1]; 500 g/ha post-emergence): 78%
STEME percentage phytotoxicity (Stellaria media (STEME); 31.25 g/ha post-emergence): 85%
STEME percentage phytotoxicity (Stellaria media (STEME); 62.5 g/ha post-emergence): 85%
STEME percentage phytotoxicity (Stellaria media (STEME); 125 g/ha post-emergence): 91%
STEME percentage phytotoxicity (Stellaria media (STEME); 250 g/ha post-emergence): 93%
STEME percentage phytotoxicity (Stellaria media (STEME); 500 g/ha post-emergence): 90%
STEME percentage phytotoxicity (Stellaria media (STEME); 1000 g/ha post-emergence): 93%
SETFA percentage phytotoxicity (Setaria faberi (SETFA); 31.25 g/ha post-emergence): 2%
SETFA percentage phytotoxicity (Setaria faberi (SETFA); 62.5 g/ha post-emergence): 0%
SETFA percentage phytotoxicity (Setaria faberi (SETFA); 125 g/ha post-emergence): 10%
SETFA percentage phytotoxicity (Setaria faberi (SETFA); 250 g/ha post-emergence): 8%
SETFA percentage phytotoxicity (Setaria faberi (SETFA); 500 g/ha post-emergence): 33%
SETFA percentage phytotoxicity (Setaria faberi (SETFA); 1000 g/ha post-emergence): 63%
Observed phytotoxicity SETFA (Setaria faberi (SETFA); 125 g/ha post-emergence): 10%
Observed phytotoxicity SETFA (Setaria faberi (SETFA); 250 g/ha post-emergence): 8%
Observed phytotoxicity SETFA (Setaria faberi (SETFA); 500 g/ha post-emergence): 33%
Observed phytotoxicity SETFA (Setaria faberi (SETFA); 1000 g/ha post-emergence): 63%
IPOHE percentage phytotoxicity ([2]; 31.25 g/ha post-emergence): 55%
IPOHE percentage phytotoxicity ([2]; 62.5 g/ha post-emergence): 80%
IPOHE percentage phytotoxicity ([2]; 125 g/ha post-emergence): 75%
IPOHE percentage phytotoxicity ([2]; 250 g/ha post-emergence): 83%
IPOHE percentage phytotoxicity ([2]; 500 g/ha post-emergence): 83%
IPOHE percentage phytotoxicity ([2]; 1000 g/ha post-emergence): 94%
AMARE percentage phytotoxicity ([3]; 31.25 g/ha post-emergence): 0%
AMARE percentage phytotoxicity ([3]; 62.5 g/ha post-emergence): 15%
AMARE percentage phytotoxicity ([3]; 125 g/ha post-emergence): 43%
AMARE percentage phytotoxicity ([3]; 250 g/ha post-emergence): 43%
AMARE percentage phytotoxicity ([3]; 500 g/ha post-emergence): 75%
AMARE percentage phytotoxicity ([3]; 1000 g/ha post-emergence): 85%
Observed phytotoxicity AMARE ([3]; 31.25 g/ha post-emergence): 0%
Observed phytotoxicity AMARE ([3]; 62.5 g/ha post-emergence): 15%
CHEAL percentage phytotoxicity ([4]; 31.25 g/ha post-emergence): 0%
CHEAL percentage phytotoxicity ([4]; 62.5 g/ha post-emergence): 8%
CHEAL percentage phytotoxicity ([4]; 125 g/ha post-emergence): 15%
CHEAL percentage phytotoxicity ([4]; 250 g/ha post-emergence): 40%
CHEAL percentage phytotoxicity ([4]; 500 g/ha post-emergence): 25%
CHEAL percentage phytotoxicity ([4]; 1000 g/ha post-emergence): 75%
DIGSA percentage phytotoxicity ([5]; 31.25 g/ha post-emergence): 0%
DIGSA percentage phytotoxicity ([5]; 62.5 g/ha post-emergence): 3%
DIGSA percentage phytotoxicity ([5]; 125 g/ha post-emergence): 8%
DIGSA percentage phytotoxicity ([5]; 250 g/ha post-emergence): 10%
DIGSA percentage phytotoxicity ([5]; 500 g/ha post-emergence): 15%
DIGSA percentage phytotoxicity ([5]; 1000 g/ha post-emergence): 55%
Observed phytotoxicity DIGSA ([5]; 250 g/ha post-emergence): 10%
Observed phytotoxicity DIGSA ([5]; 500 g/ha post-emergence): 15%
Observed phytotoxicity DIGSA ([5]; 1000 g/ha post-emergence): 55%
ABUTH percentage phytotoxicity ([6]; 31.25 g/ha post-emergence): 80%
ABUTH percentage phytotoxicity ([6]; 62.5 g/ha post-emergence): 80%
ABUTH percentage phytotoxicity ([6]; 125 g/ha post-emergence): 90%
ABUTH percentage phytotoxicity ([6]; 250 g/ha post-emergence): 98%
ABUTH percentage phytotoxicity ([6]; 500 g/ha post-emergence): 85%
ABUTH percentage phytotoxicity ([6]; 1000 g/ha post-emergence): 85%
ALOMY percentage phytotoxicity ([7]; 31.25 g/ha post-emergence): 4%
ALOMY percentage phytotoxicity ([7]; 62.5 g/ha post-emergence): 2%
ALOMY percentage phytotoxicity ([7]; 125 g/ha post-emergence): 1%
ALOMY percentage phytotoxicity ([7]; 250 g/ha post-emergence): 3%
ALOMY percentage phytotoxicity ([7]; 500 g/ha post-emergence): 8%
ALOMY percentage phytotoxicity ([7]; 1000 g/ha post-emergence): 8%
Observed phytotoxicity ALOMY ([7]; 500 g/ha post-emergence): 8%
Observed phytotoxicity ALOMY ([7]; 1000 g/ha post-emergence): 8%
